Experimental data published in ChEMBL document CHEMBL1201862, “PubChem BioAssay data set” (2004).
Values joined by “and” are separate entries in the source; they are usually repeats but may differ in a detail not shown here. Equal entries are not always repeated.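 Cultured in 96-well plates, cells were exposed to test compound for 48 hours across five concentrations. GI50: concentration for 50% inhibition of growth.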 Active and inactive are the calls of the source. No stated cut-off is given here; in the data, active = GI50 up to about 1.1 µM and inactive = higher.

Tests used:
Assay in all cases: NCI-60 cell line screen, 48 h
[1] = test system: ACHN
[2] = test system: DU-145
[3] = test system: HCC 2998
[4] = test system: HOP-62
[5] = test system: Hs-578T
[6] = test system: IGROV-1
[7] = test system: MDA-MB-231
[8] = test system: Malme-3M
[9] = test system: NCI-H522
[10] = test system: OVCAR-3
[11] = test system: OVCAR-5
[12] = test system: PC-3
[13] = test system: RXF 393
[14] = test system: SF-539
[15] = test system: SK-OV-3
[16] = test system: SNB-19
[17] = test system: U-251
[18] = test system: UACC-257
[19] = test system: EKVX
[20] = test system: HOP-92

SMILES	GI50 [1]	GI50 [2]	GI50 [3]	GI50 [4]	GI50 [5]	GI50 [6]	GI50 [7]	GI50 [8]	GI50 [9]	GI50 [10]	GI50 [11]	GI50 [12]	GI50 [13]	GI50 [14]	GI50 [15]	GI50 [16]	GI50 [17]	GI50 [18]	GI50 [19]	GI50 [20]
COc1cccc2c1C1(O)C2CCCCCCCCCC12OCCCO2 (stereo not drawn)	> 35.2 µM (inactive)	92.7 µM (inactive)	> 34.2 µM (inactive)	> 38.3 µM (inactive)	> 100 µM (inactive)	41.3 µM (inactive)	33 µM (inactive)	> 47 µM (inactive)	> 50.2 µM (inactive)	> 40.2 µM (inactive)	> 40.7 µM (inactive)	6.44 µM (inactive)	> 100 µM (inactive)	8.38 µM (inactive)	> 45.3 µM (inactive)	27.7 µM (inactive)	8.63 µM (inactive)	> 69.2 µM (inactive)		
CN(c1ccccc1)S(=O)(=O)c1ccc([N+](=O)[O-])cc1	> 100 µM (inactive)	> 100 µM (inactive)		> 100 µM (inactive)			79.3 µM (inactive)	40.6 µM (inactive)	> 100 µM (inactive)	> 100 µM (inactive)	> 100 µM (inactive)	89.5 µM (inactive)	> 100 µM (inactive)	> 100 µM (inactive)		> 100 µM (inactive)	> 100 µM (inactive)	92.5 µM (inactive)	> 100 µM (inactive)	
O=C(c1ccc(Cl)cc1)N(C(=O)N1CCCCC1)c1ccccc1	> 100 µM (inactive)	> 100 µM (inactive)			41.1 µM (inactive)	56.4 µM (inactive)	42.5 µM (inactive)	37.3 µM (inactive)		> 100 µM (inactive)	> 100 µM (inactive)	17.7 µM (inactive)		> 100 µM (inactive)	33.9 µM (inactive)	> 100 µM (inactive)	> 100 µM (inactive)		33.7 µM (inactive)	
NC(CC(=O)OCc1ccccc1)C(=O)OCc1ccccc1 (stereo not drawn)	> 100 µM (inactive)	> 100 µM (inactive)	33.2 µM (inactive)	> 100 µM (inactive)	60.4 µM (inactive)	> 100 µM (inactive)			> 100 µM (inactive)	> 100 µM (inactive)	> 100 µM (inactive)	> 100 µM (inactive)		> 100 µM (inactive)		> 100 µM (inactive)		> 100 µM (inactive)	> 100 µM (inactive)	
COc1ccc(NC(=S)NN=C(C)c2cccc(C(C)=NNC(=S)Nc3ccc(OC)cc3)n2)cc1	4.74 µM (inactive)	> 100 µM (inactive)	37.7 µM (inactive)	26.1 µM (inactive)	> 100 µM (inactive)	0.857 µM (active)		13.4 µM (inactive)	33.8 µM (inactive)	13.9 µM (inactive)	> 100 µM (inactive)	27.2 µM (inactive)	> 100 µM (inactive)	16.4 µM (inactive)	21.4 µM (inactive)	> 100 µM (inactive)	24.5 µM (inactive)	> 100 µM (inactive)	> 100 µM (inactive)	45.6 µM (inactive)
COC(=O)[C@]12CSC[C@H]1C[C@H](c1ccccc1OC)N2	> 100 µM (inactive)	> 100 µM (inactive)	> 100 µM (inactive)	> 100 µM (inactive)		85.9 µM (inactive)	> 100 µM (inactive)	> 100 µM (inactive)	> 100 µM (inactive)	> 100 µM (inactive)	> 100 µM (inactive)	> 100 µM (inactive)	> 100 µM (inactive)	> 100 µM (inactive)	> 100 µM (inactive)	> 100 µM (inactive)	> 100 µM (inactive)	> 100 µM (inactive)	> 100 µM (inactive)	
S=C(c1c[nH]c2ccccc12)N1CCOCC1	> 100 µM (inactive)	> 100 µM (inactive)		> 100 µM (inactive)	22.3 µM (inactive)	36.3 µM (inactive)	> 100 µM (inactive)	25 µM (inactive)		> 100 µM (inactive)	> 100 µM (inactive)	> 100 µM (inactive)	> 100 µM (inactive)	> 100 µM (inactive)	> 100 µM (inactive)	> 100 µM (inactive)	> 100 µM (inactive)	> 100 µM (inactive)	43.1 µM (inactive)	
CC(C)OP(=O)(OC(C)C)C(C(F)(F)F)C(F)(F)F	> 100 µM (inactive)	> 100 µM (inactive)	> 100 µM (inactive)	> 100 µM (inactive)	> 100 µM (inactive)	> 100 µM (inactive)		> 100 µM (inactive)	> 100 µM (inactive)	> 100 µM (inactive)	> 100 µM (inactive)	> 100 µM (inactive)	> 100 µM (inactive)	> 100 µM (inactive)	> 100 µM (inactive)	> 100 µM (inactive)	> 100 µM (inactive)	> 100 µM (inactive)	> 100 µM (inactive)	> 100 µM (inactive)
CC(=O)OC1OC(C2c3cccc(O)c3C(=O)c3c(O)cc(CO)cc32)C(O)C(O)C1O (stereo not drawn)		4.55 µM (inactive) and 4.88 µM (inactive)	1.85 µM (inactive) and 3.03 µM (inactive)		2.31 µM (inactive) and 2.22 µM (inactive)	4.14 µM (inactive) and 3.87 µM (inactive)		4.39 µM (inactive) and 3.45 µM (inactive)	4.51 µM (inactive) and 2.91 µM (inactive)		3.94 µM (inactive) and 2.4 µM (inactive)	3.01 µM (inactive) and 2.32 µM (inactive)	9.4 µM (inactive) and 6.84 µM (inactive)	2 µM (inactive) and 1.95 µM (inactive)	4.14 µM (inactive) and 2.62 µM (inactive)	2.88 µM (inactive) and 3.33 µM (inactive)	3.66 µM (inactive)	6.47 µM (inactive) and 7.45 µM (inactive)	3.78 µM (inactive) and 2.64 µM (inactive)	3.1 µM (inactive)
O=c1[nH]ncc2[nH]c3c(c12)CCCc1ccccc1-3	32.8 µM (inactive)	54.5 µM (inactive)	27.9 µM (inactive)	67 µM (inactive)	5.53 µM (inactive)	55.2 µM (inactive)		96.2 µM (inactive)	48.9 µM (inactive)	48.4 µM (inactive)	43.4 µM (inactive)	64.1 µM (inactive)	15.1 µM (inactive)	30.1 µM (inactive)	28.6 µM (inactive)	71.6 µM (inactive)	38.6 µM (inactive)	71.8 µM (inactive)	4.92 µM (inactive)	72.3 µM (inactive)
CCOP(=O)(OCC)C(Nc1ccc(Cl)cc1)c1ccc(F)cc1 (stereo not drawn)	28.4 µM (inactive)	24.5 µM (inactive)	22 µM (inactive)	19 µM (inactive)	20.8 µM (inactive)	> 10 µM (inactive)	21.2 µM (inactive)	19.1 µM (inactive)	20.3 µM (inactive)	29.5 µM (inactive)			21.2 µM (inactive)	22 µM (inactive)	41.7 µM (inactive)	26.7 µM (inactive)	18.2 µM (inactive)	18.5 µM (inactive)	29.2 µM (inactive)	22 µM (inactive)
CC(=O)NC(C)(C)C1CC=C(C)/C(=N\O)C1 (stereo not drawn)		> 100 µM (inactive)	> 100 µM (inactive)	> 100 µM (inactive)		> 100 µM (inactive)	> 100 µM (inactive)		> 100 µM (inactive)	> 100 µM (inactive)	> 100 µM (inactive)	> 100 µM (inactive)		> 100 µM (inactive)	> 100 µM (inactive)	> 100 µM (inactive)	> 100 µM (inactive)	> 100 µM (inactive)	> 100 µM (inactive)	> 100 µM (inactive)
Cc1ccc2c(=O)cc(Cc3cccs3)[nH]c2n1		> 100 µM (inactive)		> 100 µM (inactive)	> 100 µM (inactive)	> 100 µM (inactive)	> 100 µM (inactive)	> 100 µM (inactive)	> 100 µM (inactive)	> 100 µM (inactive)	> 100 µM (inactive)	> 100 µM (inactive)	> 100 µM (inactive)		> 100 µM (inactive)	> 100 µM (inactive)	> 100 µM (inactive)	> 100 µM (inactive)	> 100 µM (inactive)	
CNC(=S)c1nnsc1N	> 100 µM (inactive)	> 100 µM (inactive)	29.5 µM (inactive)	> 100 µM (inactive)	> 100 µM (inactive)	2.99 µM (inactive)	> 100 µM (inactive)	> 100 µM (inactive)	9.14 µM (inactive)	0.479 µM (active)	> 100 µM (inactive)	9.93 µM (inactive)	> 100 µM (inactive)	> 100 µM (inactive)	> 100 µM (inactive)		> 100 µM (inactive)	> 100 µM (inactive)	> 100 µM (inactive)	
C=C(CCC/C(C)=C/C=C/[C@H](C)CCCc1ccoc1)C[C@@H]1OC(=O)[C@H](C)[C@@H]1O	9.18 µM (inactive)	8.55 µM (inactive)	10.1 µM (inactive)	8.63 µM (inactive)		11.2 µM (inactive)	9.89 µM (inactive)	9.4 µM (inactive)	9.02 µM (inactive)	7.64 µM (inactive)	11 µM (inactive)	8.65 µM (inactive)	6.67 µM (inactive)	8.63 µM (inactive)	8.15 µM (inactive)	8.81 µM (inactive)	11.8 µM (inactive)	7.18 µM (inactive)	9.84 µM (inactive)	8.95 µM (inactive)
NC(=O)N/N=C(\Cc1nc2ccc(Cl)cc2nc1O)C(=O)Nc1ccc(Cl)cc1Cl	> 100 µM (inactive)	> 100 µM (inactive)	> 100 µM (inactive)		57.4 µM (inactive)	81.5 µM (inactive)	> 100 µM (inactive)	> 100 µM (inactive)	> 100 µM (inactive)	> 100 µM (inactive)	> 100 µM (inactive)	> 100 µM (inactive)		> 100 µM (inactive)	> 100 µM (inactive)	> 100 µM (inactive)	> 100 µM (inactive)	> 100 µM (inactive)	10.6 µM (inactive)	
